Reference: patent EP3440167B2, “FRAGRANCED COMPOSITIONS AND THEIR USE” (Unilever IP Holdings B.V., priority 2016, dated 2017)

Experiments:
Assay type in all cases: physicochemical
[1] = Example 3: exposure of β-ionone on filter paper in ozone-free glovebox, GC-MS of headspace and extract; conditions: ozone below detection limit, 1 hour exposure
Experimental: A 0.3% solution of β-ionone in ethanol and a 0.3% solution of β-cyclocitral were prepared. 1 ml of the β-ionone was placed on a piece of filter paper (cellulose, 75 mm dia.) and left for 2 minutes for the ethanol to evaporate. The filter paper was then placed in a glovebox containing an ozone "scrubber" and an ozone monitor (Aeroqual series 200 fitted with a 0 to 0.5 ppm sensor). Throughout the experiment the ozone level inside the glovebox was below the detection limit of the monitor. The ozone scrubber comprised an air pump (Interpet AirVolution AV4), pumping air at a rate of 600 l/hr through 0.75 g/l sodium thiosulphate solution.
After 1 hour exposure the filter paper was sealed in a 500 ml glass jar that had been adapted such that a SPME fibre could be introduced via a septum in the lid. The headspace above the sample was analysed using a Carboxen/DVB/PDMS SPME fibre using a 30 minute exposure. The fibre was then analysed by GC-MS. The filter paper was then removed, placed in a 28 ml glass vial and 3 ml of ethanol added. The vial was rollered for two hours after which the free ethanol was removed and analysed by GC-MS. The β-cyclocitral in ethanol solution was also analysed to indicate the appropriate retention time. […]

[2] = Experiment B: ozone chamber exposure at 100 ppb over time, headspace SPME-GCMS; conditions: 100 ppb ozone
Experimental: (§1) A β-ionone solution (10 % w/w in ethanol) was applied to a surface (20 microlitres) and was allowed to dry for one hour in a fume cupboard. The surface was then placed at the base of the ozone chamber. The ozone generator plug-in was turned on for the required time at regular intervals to achieve the desired ozone concentration inside the chamber (either 250 ppb or 350 ppb). After exposure of a surface to ozone for the desired time of 1 hour the surface was removed from the chamber and placed in a capped PVC container. The surface was left in the PVC container for 10 min and then an additional 20 min with an SPME fibre exposed to the head-space environment of the container. The headspace was measured by SPME-GCMS and the ratios of β-cyclocitral to β-ionone determined as follows:
This experiment was run like Experiment A, except that the ozone level used was 100 ppb and after 1,2,3,4 and 5 hours measurements of headspace were made and the ratios of β-cyclocitral / β-ionone were calculated from headspace concentration.

[3] = Experiment A: ozone chamber exposure of β-ionone on a surface, headspace SPME-GCMS; conditions: 1 hour exposure
Experimental: as §1, with “follows: […]” for “follows:”

## CC(=O)/C=C/C1=C(C)CCCC1(C)C [β-ionone]
[1]; SPME GC-MS of headspace
  β-cyclocitral detected in the headspace: No β-cyclocitral was detected
[1]; ethanol extract of filter paper, GC-MS
  β-cyclocitral detected on the filter paper: No β-cyclocitral was detected
[2]; 1 hour
  ratio of β-cyclocitral / β-ionone: 0.43
[2]; 2 hour
  ratio of β-cyclocitral / β-ionone: 0.95
[2]; 3 hour
  ratio of β-cyclocitral / β-ionone: 1.87
[2]; 4 hour
  ratio of β-cyclocitral / β-ionone: 7.00
[2]; 5 hour
  ratio of β-cyclocitral / β-ionone: 11.00
[3]; 250 ppb ozone
  ratio of β-cyclocitral to β-ionone: 0.72
[3]; 350 ppb ozone
  ratio of β-cyclocitral to β-ionone: 2.67
